US20230052601A1, “HALO ACTIVE AROMATIC SULFONAMIDE PHARMACEUTICAL COMPOSITIONS FOR INTERNAL USE” (priority 2021, published 2023)

System: P. aeruginosa
Assay: Flame burn injury with subcutaneous P. aeruginosa infection in mice, survival (Example 3)
Type: in vivo
Conditions: burned mice infected with P. aeruginosa; 1 mg then six doses of 0.5 mg subcutaneously; observed seven days; five treated animals; controls 4 of 11 survived; Fisher exact 0.0337
Description: Adult mice (n=16) received a ˜20% flame burn injury, followed by resuscitation with two doses of 0.5 mL of saline and […] of tramadol for analgesia. After 5 minutes, they were infected with P. aeruginosa subcutaneously under the burn wound. 20 minutes post injury, five of the animals received 1 mg of BENZ subcutaneously in 0.25 ml saline, followed by six doses of 0.5 mg of BENZ subcutaneously also in 0.25 ml saline, approximately 8-12 hours apart. The animals were observed several times daily for seven days.

Structure (SMILES): O=C(O)c1ccc(S(=O)(=O)NCl)cc1 [BENZ, N-chloro-4-carboxybenzenesulfonamide]
- survival of treated animals: all five survived
